Structures can show the parent of a compound that is named as a salt.
Legend:
Assay type in all cases: cell-based
PPARγ = biological target: T1, PPARγ (Homo sapiens, UniProt P37231); test: Crossover-curve PPAR transactivation test, PPARγ; conditions: HeLN cells stably transfected with Gal-hPPARγ and luciferase reporter; Schild regression against reference agonist; n.a. means not active; read-out: PPARγ Kd app
T1 construct: Either way it is a handle and not a second protein
T1 sequence (P37231 238-505 limits assumed): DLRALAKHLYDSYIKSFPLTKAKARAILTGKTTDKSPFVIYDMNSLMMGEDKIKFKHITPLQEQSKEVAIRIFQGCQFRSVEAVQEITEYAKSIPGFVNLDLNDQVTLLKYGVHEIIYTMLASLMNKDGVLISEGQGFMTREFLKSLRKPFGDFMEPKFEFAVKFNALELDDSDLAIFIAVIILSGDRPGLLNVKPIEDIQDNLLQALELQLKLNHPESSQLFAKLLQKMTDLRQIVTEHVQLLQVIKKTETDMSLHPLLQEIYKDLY
Description: (§1) The activation of PPAR receptors with an agonist (activator) in HeLN cells leads to the expression of a reporter gene, luciferase, which, in the presence of a substrate, generates light. The modulation of the PPAR receptors is measured by quantifying the luminescence produced after incubating the cells in the presence of a reference agonist. The ligands displace the agonist from its site. The measurement of the activity is performed by quantifying the light produced. This measurement makes it possible to determine the modulatory activity of the compounds according to the invention by determining the constant that is the affinity of the molecule for the PPAR receptor. Since this value can fluctuate depending on the basal activity and the expression of the receptor, it is referred to as Kd apparent (KdApp in nM).
(§2) To determine this constant, “crossover curves” of the test product against a reference agonist are performed in a 96-well plate: 10 concentrations of the test product plus a concentration 0 are arranged in a line, and 7 concentrations of the agonist plus a concentration 0 are arranged in a column. This is 88 measurement points for 1 product and 1 receptor. The remaining 8 wells are used for repeatability controls.
(§3) Measurements are also taken for total agonist controls with the same products.
(§4) The HeLN cell lines used are stable transfectants containing the plasmids ERE-βGlob-Luc-SV-Neo (reporter gene) and PPAR (α, δ, γ) Gal-hPPAR. These cells are inoculated into 96-well plates at a rate of 10 000 cells per well in 100 μl of DMEM medium without phenol red and supplemented with 10% of defatted calf serum. The plates are then incubated at 37° C. and 7% CO2 for 16 hours.
(§5) The various dilutions of the test products and of the reference ligand are added at a rate of 5 μl per well. The plates are then incubated for 18 hours at 37° C. and 7% CO2. The culture medium is removed by turning over and 100 μl of a 1:1 PBS/luciferine mixture are added to each well. After 5 minutes, the plates are read by the luminescence detector.

PPARα = biological target: T2, PPARα (Homo sapiens, UniProt Q07869); test: Crossover-curve PPAR transactivation test, PPARα; conditions: HeLN cells stably transfected with Gal-hPPARα and luciferase reporter; Schild regression against reference agonist; n.a. means not active; read-out: PPARα Kd app
T2 construct: Either way it is a handle and not a second protein
T2 sequence (Q07869 200-468 limits assumed): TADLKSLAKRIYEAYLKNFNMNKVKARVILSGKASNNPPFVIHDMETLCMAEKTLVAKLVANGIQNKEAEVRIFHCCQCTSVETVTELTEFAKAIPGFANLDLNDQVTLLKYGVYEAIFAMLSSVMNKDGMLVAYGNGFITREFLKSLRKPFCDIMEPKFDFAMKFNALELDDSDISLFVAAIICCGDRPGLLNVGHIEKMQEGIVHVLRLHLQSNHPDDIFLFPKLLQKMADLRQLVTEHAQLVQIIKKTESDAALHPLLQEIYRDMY
Description: as §1, §2, §3, §4, §5

PPARδ = biological target: T3, PPARδ (Homo sapiens, UniProt Q03181); test: Crossover-curve PPAR transactivation test, PPARδ; conditions: HeLN cells stably transfected with Gal-hPPARδ and luciferase reporter; Schild regression against reference agonist; n.a. means not active; read-out: PPARδ Kd app
T3 construct: Either way it is a handle and not a second protein
T3 sequence (Q03181 211-441 limits assumed): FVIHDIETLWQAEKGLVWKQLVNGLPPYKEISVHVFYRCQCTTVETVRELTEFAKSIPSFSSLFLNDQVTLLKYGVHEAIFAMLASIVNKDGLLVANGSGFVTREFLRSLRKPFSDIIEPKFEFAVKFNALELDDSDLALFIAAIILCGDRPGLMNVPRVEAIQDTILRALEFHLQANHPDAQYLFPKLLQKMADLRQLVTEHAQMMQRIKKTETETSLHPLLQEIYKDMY
Description: as §1
To determine this constant, “crossover curves” of the test product against a reference agonist are performed in a 96-well plate: 10 concentrations of the test product plus a concentration 0 are arranged in a line, and 7 concentrations of the agonist plus a concentration 0 are arranged in a column. This is 88 measurement points for 1 product and 1 receptor. […]
The various dilutions of the test products and of the reference ligand are added at a rate of 5 μl per well. […] After 5 minutes, the plates are read by the luminescence detector.

Structure (SMILES)	Kd (PPARγ) [µM]	Kd (PPARδ) [µM]	Kd (PPARα) [µM]
CCCCCCCNC(=O)N(C)c1cccc(-c2ccc(CCC(=O)O)cc2OCCCC)n1 [Example 12, 2-[2-butoxy-4-(2-carboxyethyl)phenyl]-6-(1-methyl-3-heptylureido)pyridinium hydrochloride]	0.015	–	4
CCCCCNC(=O)N(C)c1cccc(-c2ccc(CCC(=O)O)cc2OCCCC)n1 [Example 11, 2-[2-butoxy-4-(2-carboxyethyl)phenyl]-6-(1-methyl-3-pentylureido)pyridinium hydrochloride]	0.12	–	2
CCCCCCCC(=O)N(C)Cc1cc(-c2ccc(CCC(=O)O)cc2OCCCC)cs1 [Example 14, 3-(3-butoxy-4-{5-[(methyloctanoylamino)methyl]thiophen-3-yl}phenyl)propanoic acid]	0.002	–	–
CCCCCCCC(=O)N(C)Cc1cccc(-c2ccc(/C=C/C(=O)O)s2)c1 [Example 1, 3-(5-{3-[(methyloctanoylamino)methyl]phenyl}thiophen-2-yl)acrylic acid]	1	–	–
CCCCOc1cc(CCC(=O)O)ccc1-c1csc(CN(C)C(=O)c2cccc(OC)c2)c1 [Example 16, 3-[3-butoxy-4-(5-{[(3-methoxybenzoyl)methylamino]methyl}thiophen-3-yl)phenyl]propanoic acid]	0.03	–	–
CCCCOc1cc(CCC(=O)O)ccc1-c1csc(CN(C)C(=O)c2ccc(OC)cc2)c1 [Example 15, 3-[3-butoxy-4-(5-{[(4-methoxybenzoyl)methylamino]methyl}thiophen-3-yl)phenyl]propanoic acid]	0.03	–	–

The next lines start with results.

Kd (PPARγ) [µM]	Kd (PPARδ) [µM]	Structure (SMILES)	Kd (PPARα) [µM]
0.06	–	CCCCCCCNC(=O)N(C)c1cccc(-c2ccc(CCC(=O)O)cn2)c1 [Example 7, 3-{6-[3-(3-heptyl-1-methylureido)phenyl]pyrid-3-yl}propanoic acid]	–
0.5	–	CCCCCCCC(=O)N(C)Cc1cccc(-c2ccc(CCC(=O)O)s2)c1 [Example 2, 3-(5-{3-[(methyloctanoylamino)methyl]phenyl}thiophen-2-yl)propanoic acid]	–
0.25	4	CCCCCCCNC(=O)N(C)c1cccc(-c2ccc(CCC(=O)O)cc2)n1 [Example 6, 3-{4-[6-(3-heptyl-1-methylureido)pyrid-2-yl]phenyl}propanoic acid]	–
1	–	CCCCCCCNC(=O)N(C)c1ccnc(-c2ccc(CCC(=O)O)cc2)c1 [Example 8, 2-[4-(2-carboxyethyl)phenyl]-4-(3-heptyl-1-methylureido)pyridinium acetate]	–
0.12	8	CCCCCCCNC(=O)N(C)c1cccc(-c2ccc(CCC(=O)O)cc2OCC)n1 [Example 13, 2-[4-(2-carboxyethyl)-2-ethoxyphenyl]-6-(3-heptyl-1-methylureido)pyridinium hydrochloride]	4
